Assays:
[1] = Stability investigation of the lyophilisate (visual inspection, reverse HPLC); format: physicochemical
Procedure: For that the lyophilisate was stored up to 24 months at 2 to 8° C. and up to 6 months at 25° C. at 60% relative humidity. Stability was investigated at different time points during that period. In particular the appearance, contents, as well as purity of the cyclic peptides were investigated. For that laboratory-common analytical processes were used, such as e.g. visual inspection and reverse HPLC.

[2] = target: T1, amilorid-sensitive Sodium Ion Channel (ENaC) (Homo sapiens, UniProt P37088); assay: Patch Clamp whole cell sodium current in deglycosylated (PNGase F) and untreated A549 cells; format: cell-based; details: pre-treatment with PNGase F, peptide 240 nM, Eh = −100 mV
T1 construct: Macroscopic Sodium Ion Currents were derived from human lung epithelian cells A549; endogenous in cells; host or cells: A549 human lung epithelial cells
T1 sequence (P37088 1-669): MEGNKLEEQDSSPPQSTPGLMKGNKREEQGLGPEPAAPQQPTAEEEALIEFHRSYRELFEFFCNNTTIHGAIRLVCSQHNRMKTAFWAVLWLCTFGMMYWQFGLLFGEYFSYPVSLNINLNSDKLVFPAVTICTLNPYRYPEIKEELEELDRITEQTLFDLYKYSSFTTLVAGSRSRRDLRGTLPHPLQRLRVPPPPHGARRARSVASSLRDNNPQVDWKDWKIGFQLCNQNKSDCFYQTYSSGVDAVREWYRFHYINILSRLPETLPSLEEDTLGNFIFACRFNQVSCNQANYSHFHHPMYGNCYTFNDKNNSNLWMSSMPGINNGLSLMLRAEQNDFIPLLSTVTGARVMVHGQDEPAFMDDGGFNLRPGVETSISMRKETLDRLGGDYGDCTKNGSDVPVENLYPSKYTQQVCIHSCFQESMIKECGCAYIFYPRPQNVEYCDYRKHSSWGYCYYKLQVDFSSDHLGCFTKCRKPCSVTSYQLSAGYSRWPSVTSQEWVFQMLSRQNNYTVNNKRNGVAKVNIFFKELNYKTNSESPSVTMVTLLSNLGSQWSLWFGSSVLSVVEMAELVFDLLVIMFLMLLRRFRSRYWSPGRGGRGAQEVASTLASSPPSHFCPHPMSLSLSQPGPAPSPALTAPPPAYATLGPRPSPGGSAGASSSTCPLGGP
T1 sequence (P51168 1-640 partner): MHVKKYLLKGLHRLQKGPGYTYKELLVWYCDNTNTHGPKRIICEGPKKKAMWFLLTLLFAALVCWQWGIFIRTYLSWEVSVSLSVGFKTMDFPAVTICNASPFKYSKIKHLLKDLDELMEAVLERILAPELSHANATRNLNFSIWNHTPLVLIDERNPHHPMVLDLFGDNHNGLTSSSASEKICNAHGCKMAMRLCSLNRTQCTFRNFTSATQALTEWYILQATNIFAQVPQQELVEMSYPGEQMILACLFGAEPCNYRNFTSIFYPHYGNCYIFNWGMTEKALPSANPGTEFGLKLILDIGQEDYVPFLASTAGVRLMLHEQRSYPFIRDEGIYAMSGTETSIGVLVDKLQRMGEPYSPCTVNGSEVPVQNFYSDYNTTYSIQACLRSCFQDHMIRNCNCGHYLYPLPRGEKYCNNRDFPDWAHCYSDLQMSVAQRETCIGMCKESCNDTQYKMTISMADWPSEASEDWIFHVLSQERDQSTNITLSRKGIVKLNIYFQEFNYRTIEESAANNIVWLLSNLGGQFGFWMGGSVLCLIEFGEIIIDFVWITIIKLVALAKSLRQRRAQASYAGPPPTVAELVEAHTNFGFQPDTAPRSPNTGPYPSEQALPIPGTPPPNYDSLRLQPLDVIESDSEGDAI
T1 sequence (P51170 1-649 partner): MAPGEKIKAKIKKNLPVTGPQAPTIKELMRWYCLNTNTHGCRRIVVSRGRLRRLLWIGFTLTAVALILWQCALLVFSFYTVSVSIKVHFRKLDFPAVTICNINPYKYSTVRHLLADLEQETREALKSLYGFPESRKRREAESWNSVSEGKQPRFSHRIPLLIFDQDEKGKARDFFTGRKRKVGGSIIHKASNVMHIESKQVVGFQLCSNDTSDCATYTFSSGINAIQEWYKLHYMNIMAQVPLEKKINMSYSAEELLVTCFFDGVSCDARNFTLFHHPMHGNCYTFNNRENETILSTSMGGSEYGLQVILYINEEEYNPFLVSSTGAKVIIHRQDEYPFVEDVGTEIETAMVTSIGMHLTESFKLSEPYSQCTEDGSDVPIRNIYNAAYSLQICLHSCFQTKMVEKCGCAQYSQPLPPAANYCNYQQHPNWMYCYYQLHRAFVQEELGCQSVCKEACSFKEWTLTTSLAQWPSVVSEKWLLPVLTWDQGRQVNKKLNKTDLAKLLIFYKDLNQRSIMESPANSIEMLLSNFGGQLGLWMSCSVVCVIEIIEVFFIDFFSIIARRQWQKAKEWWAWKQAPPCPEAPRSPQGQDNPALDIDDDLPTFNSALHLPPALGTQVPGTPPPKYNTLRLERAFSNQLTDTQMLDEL
Procedure: […] After control recordings, 240 nM of the peptide of amino acid sequence SEQ ID NO:1 was added to the bath solution. […] Whole cell currents were recorded at Eh=−100 mV. The concentration of the peptides of amino acid sequence SEQ ID NO:1 to SEQ ID NO:7 in the bath solution was 240 nM.

[3] = storage 2-8° C., T = 0 to T = 24 M
[4] = storage 25° C./60% rH, T = 0 to T = 6 M

Compound	Amount/Contents of lyophilisate ([1]; storage 2-8° C., T = 0)	Purity of lyophilisate (stability study) ([1]; storage 2-8° C., T = 0)	Appearence of lyophilisate [1, 3]	Amount/Contents of lyophilisate ([1]; storage 2-8° C., T = 24 M)	Purity of lyophilisate (stability study) ([1]; storage 2-8° C., T = 24 M)	Amount/Contents of lyophilisate ([1]; storage 25° C./60% rH, T = 0)	Purity of lyophilisate (stability study) ([1]; storage 25° C./60% rH, T = 0)	Appearence of lyophilisate [1, 4]	Amount/Contents of lyophilisate ([1]; storage 25° C./60% rH, T = 6 M)	Purity of lyophilisate (stability study) ([1]; storage 25° C./60% rH, T = 6 M)	whole cell sodium current [2]
C[C@@H]1NC(=O)CNC(=O)[C@H](CCC(=O)O)NC(=O)[C@@H]2CCCN2C(=O)[C@H]([C@@H](C)O)NC(=O)[C@H](CCC(=O)O)NC(=O)[C@H](CCCNC(=N)N)NC(=O)[C@H](CCC(N)=O)NC(=O)CNC(=O)CCNC(=O)CC[C@@H](C(=O)O)NC(=O)[C@H](Cc2ccc(O)cc2)NC(=O)[C@H](Cc2c[nH]c3ccccc23)NC(=O)[C@@H]2CCCN2C(=O)[C@H](CCCCN)NC(=O)[C@H](C)NC(=O)[C@H](CCC(=O)O)NC1=O [SEQ ID NO: 6]	100%	99%	white powder	99%	99%	100%	99%	white powder	99%	98%	19.9 pA (n = 3)
C[C@@H]1NC(=O)CNC(=O)[C@H](CCC(=O)O)NC(=O)[C@@H]2CCCN2C(=O)[C@H]([C@@H](C)O)NC(=O)[C@H](CCC(=O)O)NC(=O)[C@H](CCCNC(=N)N)NC(=O)[C@H](CCC(N)=O)NC(=O)CNC(=O)[C@@H]2CCCN2C(=O)[C@H](CO)NC(=O)[C@@H](N)CCCCNC(=O)CC[C@@H](C(=O)O)NC(=O)[C@H](Cc2ccc(O)cc2)NC(=O)[C@H](Cc2c[nH]c3ccccc23)NC(=O)[C@@H]2CCCN2C(=O)[C@H](CCCCN)NC(=O)[C@H](C)NC(=O)[C@H](CCC(=O)O)NC1=O [SEQ ID NO: 2]	100%	96%	white powder	99%	96%	100%	96%	white powder	99%	95%	21.3 pA (n = 3)
C[C@@H]1NC(=O)CNC(=O)[C@H](CCC(=O)O)NC(=O)[C@@H]2CCCN2C(=O)[C@H]([C@@H](C)O)NC(=O)[C@H](CCC(=O)O)NC(=O)[C@H](CCCNC(=N)N)NC(=O)[C@H](CCC(N)=O)NC(=O)CNC(=O)[C@@H](N)CCCNC(=O)CNC(=O)[C@H](Cc2ccc(O)cc2)NC(=O)[C@H](Cc2c[nH]c3ccccc23)NC(=O)[C@@H]2CCCN2C(=O)[C@H](CCCCN)NC(=O)[C@H](C)NC(=O)[C@H](CCC(=O)O)NC1=O [SEQ ID NO: 4]	100%	97%	white powder	99%	97%	100%	97%	white powder	99%	96%	22.5 pA (n = 3)
C[C@@H]1NC(=O)CNC(=O)[C@H](CCC(=O)O)NC(=O)[C@@H]2CCCN2C(=O)[C@H]([C@@H](C)O)NC(=O)[C@H](CCC(=O)O)NC(=O)[C@H](CCCNC(=N)N)NC(=O)[C@H](CCC(N)=O)NC(=O)CNC(=O)[C@@H](N)CCCCNC(=O)CNC(=O)[C@H](Cc2ccc(O)cc2)NC(=O)[C@H](Cc2c[nH]c3ccccc23)NC(=O)[C@@H]2CCCN2C(=O)[C@H](CCCCN)NC(=O)[C@H](C)NC(=O)[C@H](CCC(=O)O)NC1=O [SEQ ID NO: 3]	100%	98%	white powder	99%	98%	100%	98%	white powder	99%	97%	20.6 pA (n = 3)
C[C@@H]1NC(=O)CNC(=O)[C@H](CCC(=O)O)NC(=O)[C@@H]2CCCN2C(=O)[C@H]([C@@H](C)O)NC(=O)[C@H](CCC(=O)O)NC(=O)[C@H](CCCNC(=N)N)NC(=O)[C@H](CCC(N)=O)NC(=O)CNC(=O)CCCNC(=O)C[C@@H](C(=O)O)NC(=O)[C@H](Cc2ccc(O)cc2)NC(=O)[C@H](Cc2c[nH]c3ccccc23)NC(=O)[C@@H]2CCCN2C(=O)[C@H](CCCCN)NC(=O)[C@H](C)NC(=O)[C@H](CCC(=O)O)NC1=O [SEQ ID NO: 5]	100%	99%	white powder	99%	99%	100%	99%	white powder	99%	98%	22.4 pA (n = 3)

From patent US10711041B2, “Lyophilisate containing a cyclic peptide of formula X1-[sequence]-X2” (priority 2013, dated 2020)
